Reference: publication PMC6662551 (Clinical and Translational Science, 2019)
Where “and” joins values, the source holds several entries; their conditions need not be identical. Equal values may be shown once. Read-outs that look alike come from different tables or passages of the source.

What was measured:
[1] = tested on: OATP1B1; details: c.521T>C carriers; cited from earlier work
[2] = assay type: in vivo, human; details: for AUClast: 0.25-12 hour; for baseline (C0) level: 16 samples; for C0: plasma
[3] = pravastatin + cyclosporine, CC (N = 2)
[4] = pravastatin + cyclosporine, TC (N = 6)
[5] = pravastatin + cyclosporine, TT (N = 8)
[6] = pravastatin + cyclosporine, all genotype (N = 16)
[7] = pravastatin + placebo, CC (N = 2)
[8] = pravastatin + placebo, TC (N = 6)
[9] = pravastatin + placebo, TT (N = 8)
[10] = pravastatin + placebo, all genotype (N = 16)
[11] = 12 hours after first CsA dose, pravastatin + cyclosporine, all genotype
[12] = baseline, pravastatin + placebo, all genotype
[13] = pravastatin + cyclosporine (N = 16)

| AUClast [2, 3] [nM·h] | AUClast [2, 4] [nM·h] | AUClast [2, 5] [nM·h] | AUClast [2, 6] [nM·h] | AUClast [2, 7] [nM·h] | AUClast [2, 8] [nM·h] | AUClast [2, 9] [nM·h] | AUClast fold increase, pravastatin plus CsA over pravastatin plus placebo ([2]; CC (N = 2)) [fold] | Cavg fold increase, pravastatin plus CsA over pravastatin plus placebo ([2]; CC (N = 2)) [fold] | AUClast fold increase, pravastatin plus CsA over pravastatin plus placebo ([2]; TC (N = 6)) [fold] | Cavg fold increase, pravastatin plus CsA over pravastatin plus placebo ([2]; TC (N = 6)) [fold] | AUClast fold increase, pravastatin plus CsA over pravastatin plus placebo ([2]; TT (N = 8)) [fold] | Cavg fold increase, pravastatin plus CsA over pravastatin plus placebo ([2]; TT (N = 8)) [fold] | Cavg fold increase, pravastatin plus CsA over pravastatin plus placebo ([2]; all genotype) [fold] | Cmax fold increase, pravastatin plus CsA over pravastatin plus placebo ([2]; all genotype (N = 16)) [fold] | C0 [2, 11] | C0 [2, 12] | Cmax [2, 13] [nM] | Compound | increase in plasma levels in individuals with the OATP1B1‐Val174Ala variant [1] | baseline (C0) level [2] | further results |
| --- | --- | --- | --- | --- | --- | --- | --- | --- | --- | --- | --- | --- | --- | --- | --- | --- | --- | --- | --- | --- | --- |
| – | – | – | – | – | – | – | – | – | – | – | – | – | – | – | – | – | – | CCOc1cc(CC(=O)N[C@@H](CC(C)C)c2ccccc2N2CCCCC2)ccc1C(=O)O [repaglinide] | 1.5–3 fold | – | – |
| – | – | – | – | – | – | – | – | – | – | – | – | – | – | – | – | – | – | CC(C)c1nc(N(C)S(C)(=O)=O)nc(-c2ccc(F)cc2)c1/C=C/[C@@H](O)C[C@@H](O)CC(=O)O [rosuvastatin] | 1.5–3 fold | – | – |
| 27.6 ± 8.4 | 16.5 ± 5.7 | 11.8 ± 2.3 | 15.5 ± 6.7 | 17.8 ± 3.2 | 9.8 ± 3.3 | 6.9 ± 1.2 | 1.5 | 1.6 | 1.7 | 2.0 | 1.7 | 1.9 | 1.9 | 2.2 | BLOQ in most samples | BLOQ in most samples | 2.16 ± 0.71 | coproporphyrin I [CP‐I] | – | below the levels of quantification for 12 of 16 samples | AUClast [2, 10]: 9.4 ± 4.2 nM·h; ratio of mean AUC in SLCO1B1 c.521‐CC to c.521TT ([2]; endogenous biomarker): 2.6 fold; Cavg [2, 3]: 2.50 ± 0.68 nM; Cavg [2, 4]: 1.67 ± 0.33 nM; Cavg [2, 5]: 1.15 ± 0.28 nM; Cavg [2, 6]: 1.51 ± 0.56 nM; Cmax ([2]; pravastatin + placebo (N = 16)): 1.04 ± 0.45 nM; Cavg [2, 8]: 0.88 ± 0.26 nM; Cavg [2, 9]: 0.6 ± 0.1 nM; Cavg [2, 10]: 0.83 ± 0.36 nM and 0.83 ± 0.36****^, ^b nM |
| 2.22 ± 0.13 | 1.65 ± 0.60 | 1.56 ± 0.24 | 1.68 ± 0.44 | 1.7 ± 0.013 | 1.0 ± 0.68 | 1.2 ± 0.17 | 1.2 | 1.3 | 3.0 | 1.7 | 1.3 | 1.4 | 1.5 | 1.7 | BLOQ in most samples | BLOQ in most samples | 0.24 ± 0.05 | coproporphyrin III [CP‐III] | – | below the levels of quantification for 12 of 16 samples | AUClast fold increase, pravastatin plus CsA over pravastatin plus placebo ([2]; all genotype): 1.9 fold and 1.68 ± 0.44 (1.9) fold; Cavg [2, 3]: 0.21 ± 0.008 nM; Cavg [2, 4]: 0.18 ± 0.02 nM; Cavg [2, 5]: 0.15 ± 0.03 nM; Cavg [2, 6]: 0.17 ± 0.03 nM; Cmax ([2]; pravastatin + placebo (N = 16)): 0.15 ± 0.039 nM; Cavg [2, 7]: 0.15 ± 0.004 nM; Cavg [2, 8]: 0.11 ± 0.03 nM; Cavg [2, 9]: 0.11 ± 0.02 nM |
